Measured values reported in patent US8697710B2, “Optionally substituted 3-amino-4-(thioxo or imino)-4,5-dihydro-2H-pyrazolo [3,4-d]pyrimidin-6(7H)-ones” (Intra-Cellular Therapies, Inc., priority 2008, dated 2014).

Molecular target: Phosphodiesterase 1B (PDE1B)
Assay: Measurement of PDE1B inhibition in vitro using IMAP phosphodiesterase assay kit
Type: biochemical, bovine
Settings: PDE1 inhibitory activity, IMAP fluorescence polarization, cGMP-fluorescein substrate
Description: Measurement of PDE1B Inhibition in Vitro Using IMAP Phosphodiesterase Assay Kit
Phosphodiesterase 1B (PDE1B) is a calcium/calmodulin dependent phosphodiesterase enzyme that converts cyclic guanosine monophosphate (cGMP) to 5′-guanosine monophosphate (5′-GMP). PDE can also convert a modified cGMP substrate, such as the fluorescent molecule cGMP-fluorescein, to the corresponding GMP-fluorescein. The generation of GMP-fluorescein from cGMP-fluorescein can be quantitated, using, for example, the IMAP (Molecular Devices, Sunnyvale, Calif.) immobilized-metal affinity particle reagent.
Briefly, the IMAP reagent binds with high affinity to the free 5′-phosphate that is found in GMP-fluorescein and not in cGMP-fluorescein. […] Small fluorophores that are bound up in a large, slowly tumbling, complex can be distinguished from unbound fluorophores, because the photons emitted as they fluoresce retain the same polarity as the photons used to excite the fluorescence.
In the phosphodiesterase assay, cGMP-fluorescein, which cannot be bound to IMAP, and therefore retains little fluorescence polarization, is converted to GMP-fluorescein, which, when bound to IMAP, yields a large increase in fluorescence polarization (Δmp). Inhibition of phosphodiesterase, therefore, is detected as a decrease in Δmp. […]
A decrease in GMP concentration, measured as decreased Δmp, is indicative of inhibition of PDE activity.

## C/N=c1/c2c(Nc3ccccc3)n(Cc3ccc(-c4ccccn4)cc3)nc2n(CC(C)C)c(=O)n1C [Example 2, 7-Isobutyl-5-methyl-4-(methylimino)-3-(phenylamino)-2-(4-(pyridin-2-yl)benzyl)-4,5-dihydro-2H-pyrazolo[3,4-d]pyrimidin-6(7H)-one]
  IC50: < 200 nM
